Experimental findings from ChEMBL document CHEMBL1134506, “Design and synthesis of 2-methyl-2-[4-(2-[5-methyl-2-aryloxazol-4-yl]ethoxy)phenoxy]propionic acids: a new class of dual PPARalpha/gamma agonists” (J Med Chem, 2001) are described below.

Experiment [1] concerns the target T1, Peroxisome proliferator-activated receptor alpha (Homo sapiens, UniProt Q07869).
T1 sequence (Q07869 whole entry): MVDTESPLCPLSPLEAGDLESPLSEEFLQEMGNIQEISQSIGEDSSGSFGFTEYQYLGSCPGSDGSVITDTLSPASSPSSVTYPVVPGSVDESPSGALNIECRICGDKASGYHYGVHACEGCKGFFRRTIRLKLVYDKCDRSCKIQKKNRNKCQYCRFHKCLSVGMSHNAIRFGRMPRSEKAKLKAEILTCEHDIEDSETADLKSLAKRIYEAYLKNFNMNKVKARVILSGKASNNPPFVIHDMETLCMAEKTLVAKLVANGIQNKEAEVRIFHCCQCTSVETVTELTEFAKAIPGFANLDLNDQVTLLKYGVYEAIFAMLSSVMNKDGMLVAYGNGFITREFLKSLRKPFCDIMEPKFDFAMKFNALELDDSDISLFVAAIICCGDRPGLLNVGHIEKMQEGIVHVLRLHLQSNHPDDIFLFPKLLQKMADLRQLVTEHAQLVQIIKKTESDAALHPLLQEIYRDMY
In words: (§1) Binding affinity at human PPAR alpha.

The target in experiment [2] is T2, Peroxisome proliferator-activated receptor gamma (Homo sapiens, UniProt P37231).
T2 sequence (P37231 whole entry): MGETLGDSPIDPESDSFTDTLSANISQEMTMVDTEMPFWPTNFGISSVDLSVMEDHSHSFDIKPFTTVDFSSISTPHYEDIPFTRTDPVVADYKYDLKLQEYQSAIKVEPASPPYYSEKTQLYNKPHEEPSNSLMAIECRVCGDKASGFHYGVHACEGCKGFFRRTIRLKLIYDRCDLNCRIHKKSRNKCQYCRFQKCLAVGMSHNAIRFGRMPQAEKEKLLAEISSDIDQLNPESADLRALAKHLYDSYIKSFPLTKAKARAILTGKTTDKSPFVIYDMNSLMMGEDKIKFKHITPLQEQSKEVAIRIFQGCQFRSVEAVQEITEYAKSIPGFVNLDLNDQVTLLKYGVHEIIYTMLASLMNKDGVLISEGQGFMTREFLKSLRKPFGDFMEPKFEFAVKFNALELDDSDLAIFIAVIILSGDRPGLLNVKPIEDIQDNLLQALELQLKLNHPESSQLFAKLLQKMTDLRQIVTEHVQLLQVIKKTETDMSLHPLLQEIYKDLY

Experiment [3] concerns the target T1, Peroxisome proliferator-activated receptor alpha. In words: Binding affinity towards human […] proliferator activated receptor alpha (hPPARalpha).
The target in experiment [4] is T2, Peroxisome proliferator-activated receptor gamma. The source holds these as a separate data set.
Description: Binding affinity at human peroxidase proliferator activated receptor gamma (hPPARgamma)
The target in experiment [5] is T3, Peroxisome proliferator-activated receptor alpha (Homo sapiens) (UniProt Q07869).
T3 sequence (whole entry): T1 sequence (Q07869 whole entry)
The experiment is described as §1.

Experiment [6] has as its target T2, Peroxisome proliferator-activated receptor gamma. In words: Binding affinity at human […] proliferator activated receptor gamma (hPPARgamma); No binding.
Experiment [7] deals with T4, Peroxisome proliferator-activated receptor gamma (Homo sapiens) (UniProt P37231).
T4 sequence (whole entry): T2 sequence (P37231 whole entry)
In words: Binding affinity at human PPAR gamma.

Experiment [8] addresses T1, Peroxisome proliferator-activated receptor alpha. Put plainly: Binding affinity towards human […] proliferator activated receptor alpha (hPPARalpha); No binding.

Regarding `Cc1oc(-c2ccc(-c3ccccc3)cc2)nc1CCOc1ccc(OC(C)(C)C(=O)O)cc1`, the EC50 is 149 nM in experiment [1] and 882 nM in experiment [2]. Besides, the IC50 in experiment [3] turned out to be 174 nM; in experiment [4], 548 nM.

Consider `CC(C)(Oc1ccc(C(=O)c2ccc(Cl)cc2)cc1)C(=O)O` [FENOFIBRIC ACID], for which the Efficacy in experiment [5] and in experiment [7] was < 20% in each case. The IC50 in experiment [3] is 68000 nM; in experiment [6] it was “Not Active”.

Regarding `Cc1c(C)c2c(c(C)c1O)CCC(C)(COc1ccc(CC3SC(=O)NC3=O)cc1)O2` (stereo unspecified) [TROGLITAZONE], the Efficacy in experiment [5] was < 20%. In experiment [8], the IC50 entry is listed as “Not Active”.

`Cc1oc(-c2ccccc2)nc1CCOc1ccc(OCC(=O)O)cc1`: the concentration for a half-maximal effect (EC50) in experiment [1] came to 2750 nM. For the same compound, the IC50 in experiment [3] and in experiment [4] was 10600 nM in each case. The Efficacy in experiment [7] was 20%.

With `Cc1oc(-c2ccccc2)nc1CCOc1ccc(CC2SC(=O)NC2=O)cc1` (stereo unspecified), the results for the EC50 in experiment [1] and in experiment [2] were 771 nM and 8 nM, respectively. The concentration for half-maximal inhibition (IC50) amounted to 4090 nM in experiment [3] and 14 nM in experiment [4].

Turning to `Cc1oc(-c2ccccc2)nc1CCOc1ccc(OC(C)(C)C(=O)O)cc1`, the figures for the EC50 in experiment [1] and in experiment [2] were 717 nM and 2060 nM, respectively. Also, the IC50 is 1440 nM in experiment [3] and 3020 nM in experiment [4].

In the case of `Cc1oc(-c2ccc(Br)cc2)nc1CCOc1ccc(OC(C)(C)C(=O)O)cc1`, the concentration giving a half-maximal response (EC50) worked out at 61.9 nM in experiment [1] and 1720 nM in experiment [2]. The IC50 stood at 242 nM in experiment [3] and 4560 nM in experiment [4].

In turn, `CN(CCOc1ccc(CC2SC(=O)NC2=O)cc1)c1ccccn1` (stereo unspecified) came in with an Efficacy in experiment [5] of 20%.

Turning to `Cc1oc(-c2ccccc2)nc1CCOc1ccc(OC(C)C(=O)O)cc1` (stereo unspecified), the EC50 was 625 nM in experiment [1] and 2750 nM in experiment [2]. For the same compound, the figures for the concentration for half-maximal inhibition (IC50) in experiment [3] and in experiment [4] were 2030 nM and 3120 nM, respectively.

The EC50 is the concentration needed to bring the measured effect to its halfway point. A higher EC50 goes with weaker potency. The IC50 is the concentration that inhibits the measured activity by half. Higher therefore signals a need for much substance.
